Data: US20170202936A1, “Identification, Optimization And Use Of Cryptic HLA-B7 Epitopes For Immunotherapy” (VAXON BIOTECH, priority 2006, published 2017)
Entries after “also recorded” stand apart in the source; their conditions may differ. No end group written: not given here.

Tests used:
[1] = target: T1, HLA-B*0702 (Homo sapiens, UniProt P01889); test: Measurement of peptide relative affinity to HLA-B*0702 (T2-B7 cells, ME-1 mAb staining); type: binding; conditions: for RA: class symbols, Table IV; for RA (relative affinity for HLA-B*0702): T2-B7 cells, 16 hours 37° C., ratio of concentrations inducing 20% HLA-B*0702 expression vs reference peptide CMV265-274
T1 construct: expressed in transfected cells; host or cells: human T2 cells transfected with HLA-B*0702 (T2-B7)
Experimental: The affinity of a peptide for HLA-B*0702 can be determined by methods known in the art, for instance by the assay described by Rohrlich et al., 2003. Results are expressed as relative affinity (RA) when compared to a reference peptide. […] Peptides with RA greater than 10 are therefore considered to be cryptic peptides (or epitopes).
Measurement of Peptide Relative Affinity to HLA-B*0702. The protocol used has been described previously (Rohrlich et al., 2003). Briefly, T2-B7 cells were incubated at 37° C. for 16 hours with peptides concentrations ranging from 100 μM to 0.1 μM, and then stained with ME-1 monoclonal antibody (mAb) to quantify the surface expression of HLA-B*0702. For each peptide concentration, the HLA-B*0702 specific staining was calculated as the percentage of staining obtained with 100 μM of the reference peptide CMV265-274 (R10V; […], SEQ ID NO: 9). The relative affinity (RA) was determined as: RA=(Concentration of each peptide that induces 20% of HLA-B*0702-expression/Concentration of the reference peptide that induces 20% of HLA-B*0702 expression).

[2] = system: HLA-B*0702 transgenic mice; test: CTL induction in vivo in HLA-B*0702 transgenic mice (immunogenicity, cytotoxic assay on peptide-loaded RMA-B7 targets); set-up: key to Corresponding native peptide cross-reconnaissance: + for immunogenicity or native peptide cross recognition means that the peptide induced a specific response in at least one HLA-B*0702 transgenic mouse, able to recognized the corresponding native peptide; conditions: for Immunogenicity: specific CTL immune response (in words) / Recognition of the native peptide by CTL generated with the optimized peptide (in words): HLA-B*0702 transgenic mice; for Corresponding native peptide cross-reconnaissance: CTL induced in HLA-B*0702 transgenic mice
Experimental: (§1) CTL Induction in vivo in HLA-B*0702 Transgenic Mice. Mice were injected subcutaneously with 100 μg of peptide emulsified in Incomplete Freund's Adjuvant (IFA) in the presence of 150 μg of the I-A^b restricted HBVcore128 T helper epitope ([…], SEQ ID NO: 10). After 11 days, 5×10^7 spleen cells were stimulated in vitro with peptide (10 μM). On day 6 of culture, the bulk responder populations were tested for specific cytotoxicity.
(§2) Cytotoxic assay. Targets were labelled with 100 μCi of Cr^51 for 60 min, plated in 96-well V-bottomed plates (3×10^3 cell/well in 100 μL of RPMI 1640 medium) and, when necessary, pulsed with peptides (1 μM) at 37° C. for 2 hours. Effectors were then added in the wells and incubated at 37° C. for 4 hours. Percentage of specific lysis was determined as: % Lysis=(Experimental Release−Spontaneous Release)/(Maximal Release−Spontaneous Release)×100.
(§3) HLA-B7 transgenic mice were vaccinated with the selected peptides, and eleven days later, their spleen cells were in vitro stimulated with the peptide.

[3] = system: HLA-B*0702 transgenic mice; test: as above; set-up: key: +: means that a specific immunoresponse was generated at least one HLA-B*0702 transgenic mice; conditions: Table IV
Experimental: as §1, §2, §3

[4] = system: HLA-B*0702 transgenic mice; test: as above; set-up: key: + for immunogenicity or native peptide cross recognition means that the peptide induced a specific response in at least one HLA-B*0702 transgenic mouse, able to recognized the corresponding native peptide; conditions: Table V
Experimental: as §1, §2, §3

[5] = system: T2-B7 targets; test: Generation of CTL from human PBMC of healthy donors, cytotoxicity against peptide-loaded T2-B7 targets; type: cell-based; conditions: one responding donor
Experimental: (§4) Generation of CTL from human PBMC. PBMC were collected by leukapheresis from healthy HLA-B*0702 volunteers. Dendritic cells (DC) were produced from adherent cells cultured for seven days (2×10^6 cells/ml) in the presence of 500 IU/ml GM-CSF and 500 IU/ml IL-4 (R&D Systems, Minneapolis, Minn.) in complete medium (RPMI-1640 supplemented with 10% heat inactivated human AB serum, […] L-Glutamine and antibiotics). On day seven, DC were pulsed with 10 μM peptides for 2 hrs; maturation agents Poly I:C (Sigma, Oakville, Canada) at 100 ng/ml and anti-CD40 mAb (clone G28-5, ATCC, Manassas, Va.) at 2 μg/ml were added in the culture and DCs were incubated at 37° C. overnight or up to 48 hours. Mature DC were then irradiated (3500 rads). CD8+ cells were purified by positive selection with CD8 MicroBeads (Miltenyi Biotec, Auburn, Calif.) according to the manufacturer's instructions. 2×10^5 CD8^+ cells+6×10^4 CD8^− cells were stimulated with 2×10^4 peptide pulsed DC in complete culture medium supplemented with 1000 IU/ml IL-6 and 5 IU/ml IL-12 (R&D Systems, Minneapolis, Minn.) in round-bottomed 96 well plates. […]
(§5) Cytotoxic assay. […] Percentage of specific lysis was determined as: % Lysis=(Experimental Release−Spontaneous Release)/(Maximal Release−Spontaneous Release)×100.

[6] = system: SK-MES-1, HBL-100, SW-480 and HSS human tumor cell lines; test: Cytotoxicity of peptide-induced human CTL against human tumor cell lines; type: cell-based; conditions: one responding donor
Experimental: Cells. HLA-B*0702 transfected murine RMA-B7 and human T2-B7 cells were previously described (Rohrlich et al., 2003). COS-7 and WEHI-164 clone 13 cells were provided by F. Jotereau (INSERM 463, Nantes, France). The HLA-B*0702 positive SK-MES-1 (lung cancer), HBL-100 (breast cancer), and the HLA-B*0702 negative SW-480 (colon cancer) and HSS (myeloma) cell lines were used as targets of human CTL. All cell lines were grown in FCS 10% supplemented RPMI1640 culture medium.
as §4, with “rads).” for “rads). CD8+ cells were purified by positive selection with CD8 MicroBeads (Miltenyi Biotec, Auburn, Calif.) according to the manufacturer's instructions. 2×10^5 CD8^+ cells+6×10^4 CD8^− cells were stimulated with 2×10^4 peptide pulsed DC in complete culture medium supplemented with 1000 IU/ml IL-6 and 5 IU/ml IL-12 (R&D Systems, Minneapolis, Minn.) in round-bottomed 96 well plates.”
as §5

## YPVTNAVITV (Hsp70 137(10) antigen peptide) [Hsp70 137 (10)]
[1]
  Affinity for HLA-B*0702 (in words): low affinity; also recorded: non binders
[2]
  Immunogenicity: specific CTL immune response (in words): Only the high affinity TERT4 was immunogenic

## APRSLGLEL (HSP70_397R3L9 optimized peptide) [Hsp70397R3L9]
[1]
  Affinity for HLA-B*0702 (in words): strong affinity
  RA: ++ (++ = RA < 1)
[2]
  Immunogenicity: specific CTL immune response (in words): induced an immune response in the majority of vaccinated mice
  Recognition of the native peptide by CTL generated with the optimized peptide (in words): recognized the optimized peptide but not the corresponding native peptide
[3]
  Immunogenicity: +

## GPKHSDCLA (HER-2/neu246 HLA-B*0702 restricted cryptic epitope) [Her2/neu246]
[2]
  Immunogenicity: specific CTL immune response (in words): not immunogenic

## APRMPEAAL (a HLA-B*0702 restricted peptide)
[3]
  Immunogenicity: +

## EPVTKAEML [MAGE-A121.1]
[1]
  Affinity for HLA-B*0702 (in words): low affinity
  RA (relative affinity for HLA-B*0702): >10

## APRALVETL (MAGE-A antigen peptide)
[1]
  RA: + (+ = 1 < RA < 10)
[3]
  Immunogenicity: +

## APRPWTPCL (a HLA-B*0702 restricted peptide)
[1]
  RA: + (+ = 1 < RA < 10)
[3]
  Immunogenicity: +

## APKHSDCLA (Her-2/neu246A1 optimized peptide derived from the cryptic peptide of SEQ ID NO4) [Her2/neu246A1]
[2]
  Corresponding native peptide cross-reconnaissance: +
[3]
  Immunogenicity: +
[4]
  Immunogenicity: +

## APRSPLAPS (HER-2/neu1069 HLA-B*0702 restricted cryptic epitope) [Her2/neu1069]
[2]
  Immunogenicity: specific CTL immune response (in words): not immunogenic

## APRGVPQIEL (a HLA-B*0702 restricted peptide)
[3]
  Immunogenicity: +

## APVTKAEML (MAGE-121.1 A1 optimized peptide) [MAGE-121.1/A1]
[1]
  RA (relative affinity for HLA-B*0702): >10

## APRMHCAVDL (EphA2)
[1]
  RA: ++ (++ = RA < 1)
[3]
  Immunogenicity: +

## YPEEISSMVL (peptide of Hsp70_115) [Hsp70 115]
[1]
  Affinity for HLA-B*0702 (in words): low affinity; also recorded: non binders
[2]
  Immunogenicity: specific CTL immune response (in words): Only the high affinity TERT4 was immunogenic

## APEEISSMVL (HSP70_115A1 optimized peptide) [Hsp70 115A1]
[1]
  RA (relative affinity for HLA-B*0702): >10

## EPITKAEIL (MAGE-A121.4 antigen peptide)
[1]
  Affinity for HLA-B*0702 (in words): low affinity
  RA (relative affinity for HLA-B*0702): >10

## APRCRAVRSL [TERT4]
[5]
  Cytotoxicity of human CTL against peptide-loaded T2-B7 targets: killed T2-B7 targets presenting TERT4 but not T2-B7 cells presenting the irrelevant Nef peptide
[6]
  Cytotoxicity of human CTL against human tumor cell lines: killed the HLA-B*0702 TERT+SK-MES-1 and HBL-100 but not the HLA-B*0702-TERT+SW-480 and HSS human tumor cell lines

## APRVSIRLPL (EphA2)
[1]
  RA: ++ (++ = RA < 1)

## APREYVNAL (Her-2/neu)
[1]
  RA: + (+ = 1 < RA < 10)
[3]
  Immunogenicity: +

## APRSPLAPL (Her-2/neu1069L9 optimized peptide derived from the cryptic peptide of SEQ ID NO2) [Her2/neu1069L9]
[1]
  RA: ++ (++ = RA < 1)
[2]
  Corresponding native peptide cross-reconnaissance: +
[3]
  Immunogenicity: +
[4]
  Immunogenicity: +

## SPKANKEIL (HER-2/neu760 HLA-B*0702 restricted cryptic epitope) [Her2/neu760]
[2]
  Immunogenicity: specific CTL immune response (in words): not immunogenic

## APRASSPLL (a HLA-B*0702 restricted peptide)
[3]
  Immunogenicity: +

## APRQLGREL (a HLA-B*0702 restricted peptide)
[3]
  Immunogenicity: +

## APKANKEIL (Her-2/neu760A1 optimized peptide derived from the cryptic peptide of SEQ ID NO3) [Her2/neu760A1]
[2]
  Corresponding native peptide cross-reconnaissance: +
[3]
  Immunogenicity: +
[4]
  Immunogenicity: +

## APLSLGLET (Hsp70 397 antigen peptide)
[1]
  Affinity for HLA-B*0702 (in words): low affinity
  RA (relative affinity for HLA-B*0702): >10
[2]
  Immunogenicity: specific CTL immune response (in words): Only the high affinity TERT4 was immunogenic

## EPFTKAEML (MAGE-A121.2 antigen peptide)
[1]
  Affinity for HLA-B*0702 (in words): low affinity
  RA (relative affinity for HLA-B*0702): >10

## APRTKAEML (MAGE-121.1 A1R3 optimized peptide)
[1]
  RA: + (+ = 1 < RA < 10)
[3]
  Immunogenicity: +

## APREISSMVL (HSP70_115A1R3 optimized peptide) [Hsp70115A1R3]
[1]
  Affinity for HLA-B*0702 (in words): strong affinity
  RA: + (+ = 1 < RA < 10)
[2]
  Immunogenicity: specific CTL immune response (in words): induced an immune response in the majority of vaccinated mice
  Recognition of the native peptide by CTL generated with the optimized peptide (in words): recognized the optimized peptide but not the corresponding native peptide
[3]
  Immunogenicity: +

## APRRRLGCEL (TERT antigen peptide)
[1]
  RA: + (+ = 1 < RA < 10)
[3]
  Immunogenicity: +
